Measured values as given in ChEMBL document CHEMBL3991601, “The target landscape of clinical kinase drugs” (Science, 2017).
The source made the active and inactive calls.

How the values were obtained:
[1] = target: T1, Eukaryotic translation initiation factor 5B (Homo sapiens, UniProt O60841)
T1 sequence (O60841 whole entry): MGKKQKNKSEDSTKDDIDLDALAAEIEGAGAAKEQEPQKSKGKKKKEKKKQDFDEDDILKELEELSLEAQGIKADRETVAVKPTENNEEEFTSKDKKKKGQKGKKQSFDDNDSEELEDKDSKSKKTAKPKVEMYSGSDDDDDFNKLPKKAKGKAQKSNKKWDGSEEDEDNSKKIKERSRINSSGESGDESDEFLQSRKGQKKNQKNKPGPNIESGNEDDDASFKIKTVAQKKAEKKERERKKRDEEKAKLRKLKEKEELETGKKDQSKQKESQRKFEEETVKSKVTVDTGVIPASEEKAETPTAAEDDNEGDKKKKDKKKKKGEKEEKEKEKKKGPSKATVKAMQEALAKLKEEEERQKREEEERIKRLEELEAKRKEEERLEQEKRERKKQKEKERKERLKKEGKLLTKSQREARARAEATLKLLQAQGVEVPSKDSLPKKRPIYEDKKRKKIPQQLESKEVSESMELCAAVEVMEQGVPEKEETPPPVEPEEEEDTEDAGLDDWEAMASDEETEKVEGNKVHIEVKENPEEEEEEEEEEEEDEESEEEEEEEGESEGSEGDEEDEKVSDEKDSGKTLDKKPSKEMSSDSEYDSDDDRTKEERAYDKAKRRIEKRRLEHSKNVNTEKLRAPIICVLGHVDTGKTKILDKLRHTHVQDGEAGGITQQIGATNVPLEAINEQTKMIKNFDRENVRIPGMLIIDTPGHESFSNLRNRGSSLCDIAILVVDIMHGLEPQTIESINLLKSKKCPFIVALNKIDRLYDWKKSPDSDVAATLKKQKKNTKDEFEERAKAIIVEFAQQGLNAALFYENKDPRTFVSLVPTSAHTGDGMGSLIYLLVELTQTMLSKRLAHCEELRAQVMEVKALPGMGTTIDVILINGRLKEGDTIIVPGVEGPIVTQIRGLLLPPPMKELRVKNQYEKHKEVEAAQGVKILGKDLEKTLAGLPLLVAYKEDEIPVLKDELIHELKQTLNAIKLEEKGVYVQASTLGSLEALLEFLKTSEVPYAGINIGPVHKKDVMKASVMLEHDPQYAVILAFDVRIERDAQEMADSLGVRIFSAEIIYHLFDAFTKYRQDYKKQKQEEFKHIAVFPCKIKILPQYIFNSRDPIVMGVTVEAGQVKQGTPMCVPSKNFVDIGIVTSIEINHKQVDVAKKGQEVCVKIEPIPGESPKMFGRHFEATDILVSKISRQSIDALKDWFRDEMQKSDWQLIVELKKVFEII

Pyridoxal kinase = target: T2, Pyridoxal kinase (Homo sapiens, UniProt O00764)
T2 sequence (O00764 whole entry): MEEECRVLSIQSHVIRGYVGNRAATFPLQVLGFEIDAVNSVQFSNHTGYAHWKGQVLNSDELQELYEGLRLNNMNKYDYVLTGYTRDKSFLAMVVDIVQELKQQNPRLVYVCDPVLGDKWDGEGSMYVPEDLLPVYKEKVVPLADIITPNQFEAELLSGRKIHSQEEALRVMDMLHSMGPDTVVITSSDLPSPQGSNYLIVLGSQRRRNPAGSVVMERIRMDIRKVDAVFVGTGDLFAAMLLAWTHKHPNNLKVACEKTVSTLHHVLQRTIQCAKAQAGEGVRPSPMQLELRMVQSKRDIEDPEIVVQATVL

[2] = target: T3, Ras-related protein Rab-10 (Homo sapiens, UniProt P61026)
T3 sequence (P61026 whole entry): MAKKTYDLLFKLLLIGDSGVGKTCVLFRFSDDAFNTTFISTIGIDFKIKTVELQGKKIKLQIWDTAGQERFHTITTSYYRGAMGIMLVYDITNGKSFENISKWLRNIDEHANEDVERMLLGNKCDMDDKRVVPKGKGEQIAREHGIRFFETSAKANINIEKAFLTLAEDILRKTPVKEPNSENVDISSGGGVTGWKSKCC

[3] = target: Ribosomal protein S6 kinase alpha-4 (Homo sapiens, UniProt O75676)
Sequence of Ribosomal protein S6 kinase alpha-4 (O75676 whole entry): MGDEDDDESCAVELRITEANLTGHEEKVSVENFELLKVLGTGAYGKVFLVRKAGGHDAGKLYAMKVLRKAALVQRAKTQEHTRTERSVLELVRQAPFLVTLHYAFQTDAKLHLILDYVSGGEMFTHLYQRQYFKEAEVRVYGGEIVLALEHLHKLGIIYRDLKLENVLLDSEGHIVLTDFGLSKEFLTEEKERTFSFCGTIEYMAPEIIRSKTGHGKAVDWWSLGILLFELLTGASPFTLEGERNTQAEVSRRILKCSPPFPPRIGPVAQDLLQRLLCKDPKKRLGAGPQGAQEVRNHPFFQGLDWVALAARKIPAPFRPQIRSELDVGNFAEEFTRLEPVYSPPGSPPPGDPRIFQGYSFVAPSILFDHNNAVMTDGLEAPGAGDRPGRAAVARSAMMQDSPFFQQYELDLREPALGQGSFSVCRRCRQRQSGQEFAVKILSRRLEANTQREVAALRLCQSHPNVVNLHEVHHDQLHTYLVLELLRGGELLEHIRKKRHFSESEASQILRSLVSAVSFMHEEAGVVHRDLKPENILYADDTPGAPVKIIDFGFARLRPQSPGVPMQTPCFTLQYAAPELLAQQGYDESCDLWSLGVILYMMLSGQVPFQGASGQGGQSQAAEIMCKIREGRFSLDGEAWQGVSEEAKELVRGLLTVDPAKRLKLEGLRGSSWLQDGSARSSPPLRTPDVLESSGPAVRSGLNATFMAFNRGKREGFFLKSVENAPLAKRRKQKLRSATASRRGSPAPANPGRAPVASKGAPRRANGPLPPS

[4] = target: Tyrosine-protein kinase SYK (Homo sapiens, UniProt P43405)
[5] = target: T4, Serine/threonine-protein kinase TBK1 (Homo sapiens, UniProt Q9UHD2)
T4 sequence (Q9UHD2 whole entry): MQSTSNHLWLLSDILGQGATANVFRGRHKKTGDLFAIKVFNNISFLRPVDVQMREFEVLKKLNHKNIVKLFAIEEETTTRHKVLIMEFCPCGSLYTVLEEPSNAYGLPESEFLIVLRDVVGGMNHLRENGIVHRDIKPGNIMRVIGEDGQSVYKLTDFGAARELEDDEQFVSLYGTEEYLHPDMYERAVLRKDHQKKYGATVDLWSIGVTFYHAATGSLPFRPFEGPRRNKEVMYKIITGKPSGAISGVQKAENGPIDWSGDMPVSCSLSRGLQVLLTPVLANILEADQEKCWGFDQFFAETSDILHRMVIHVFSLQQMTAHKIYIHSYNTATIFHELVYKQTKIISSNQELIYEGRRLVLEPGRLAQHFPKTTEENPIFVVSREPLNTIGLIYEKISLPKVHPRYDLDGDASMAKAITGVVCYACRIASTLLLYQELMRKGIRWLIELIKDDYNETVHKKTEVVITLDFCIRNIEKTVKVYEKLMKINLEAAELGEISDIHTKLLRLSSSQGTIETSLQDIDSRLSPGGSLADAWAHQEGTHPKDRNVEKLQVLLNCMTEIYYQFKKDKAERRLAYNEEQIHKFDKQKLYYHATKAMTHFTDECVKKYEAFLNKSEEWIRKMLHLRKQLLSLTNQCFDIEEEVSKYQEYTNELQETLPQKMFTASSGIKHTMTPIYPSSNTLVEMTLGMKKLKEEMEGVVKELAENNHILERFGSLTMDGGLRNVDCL
Also: in the data inactive means no Kd found up to 30 µM.

Compound	Kd [1]	Kd (Pyridoxal kinase)	Kd [2]	Kd [3]	Kd [4]	Kd [5]
O=C(Nc1nc2cccc(-c3ccc(CN4CCS(=O)(=O)CC4)cc3)n2n1)C1CC1 [FILGOTINIB]	> 30 µM (inactive)	> 30 µM (inactive)	> 30 µM (inactive)	> 30 µM (inactive)	> 30 µM (inactive)	> 30 µM (inactive)
CNC(=O)c1cccc2cc(Oc3ccnc4cc(OCC5(N)CC5)c(OC)cc34)ccc12 [LUCITANIB]	> 30 µM (inactive)	16.4 µM (active)	> 30 µM (inactive)	> 30 µM (inactive)	> 30 µM (inactive)	> 30 µM (inactive)
COc1ncc(-c2ccc3nccc(-c4ccnnc4)c3c2)cc1NS(=O)(=O)c1ccc(F)cc1F [OMIPALISIB]	> 30 µM (inactive)	> 30 µM (inactive)	> 30 µM (inactive)	> 30 µM (inactive)	> 30 µM (inactive)	> 30 µM (inactive)
CCCCCCCCCCCCCCCCCCOP(=O)([O-])OC1CC[N+](C)(C)CC1 [PERIFOSINE]	> 30 µM (inactive)	> 30 µM (inactive)	> 30 µM (inactive)	> 30 µM (inactive)	> 30 µM (inactive)	> 30 µM (inactive)
Cc1cnc(NC(=O)Nc2cc(Br)c(C)cc2OC[C@@H]2CNCCO2)cn1 [RABUSERTIB]	> 30 µM (inactive)	> 30 µM (inactive)	> 30 µM (inactive)	> 30 µM (inactive)	> 30 µM (inactive)	> 30 µM (inactive)
CNC(=O)c1cc(Oc2ccc(NC(=O)Nc3cc(C(C)(C)C)nn3-c3ccc4ncccc4c3)c(F)c2)ccn1 [REBASTINIB]	> 30 µM (inactive)	> 30 µM (inactive)	> 30 µM (inactive)	12.8 µM	1.83 µM (active)	> 30 µM (inactive)
N#CC1(c2ccc(NC(=O)c3cccnc3NCc3ccncc3)cc2)CCCC1 [RIVOCERANIB]	> 30 µM (inactive)	> 30 µM (inactive)	> 30 µM (inactive)	> 30 µM (inactive)	> 30 µM (inactive)	> 30 µM (inactive)
O=c1[nH]ccc2cc(OC3CCNCC3)ccc12 [SAR-407899 FREE BASE]	> 30 µM (inactive)	> 30 µM (inactive)	> 30 µM (inactive)	> 30 µM (inactive)	> 30 µM (inactive)	> 30 µM (inactive)
CO[C@H]1C[C@@H]2CC[C@@H](C)[C@@](O)(O2)C(=O)C(=O)N2CCCC[C@H]2C(=O)O[C@H]([C@H](C)C[C@@H]2CC[C@@H](O)[C@H](OC)C2)CC(=O)[C@H](C)/C=C(\C)[C@@H](O)[C@@H](OC)C(=O)[C@H](C)C[C@H](C)/C=C/C=C/C=C/1C [SIROLIMUS]	> 30 µM (inactive)	> 30 µM (inactive)	> 30 µM (inactive)	> 30 µM (inactive)	> 30 µM (inactive)	> 30 µM (inactive)
CO[C@H]1C[C@@H]2CC[C@@H](C)[C@@](O)(O2)C(=O)C(=O)N2CCCC[C@H]2C(=O)O[C@H]([C@H](C)C[C@@H]2CC[C@@H](OC(=O)C(C)(CO)CO)[C@H](OC)C2)CC(=O)[C@H](C)/C=C(\C)[C@@H](O)[C@@H](OC)C(=O)[C@H](C)C[C@H](C)/C=C/C=C/C=C/1C [TEMSIROLIMUS]	> 30 µM (inactive)	> 30 µM (inactive)	> 30 µM (inactive)	> 30 µM (inactive)	> 30 µM (inactive)	> 30 µM (inactive)
O=C(Cc1ccc(-c2ccc(OCCN3CCOCC3)cc2)cn1)NCc1ccccc1 [TIRBANIBULIN]	> 30 µM (inactive)	> 30 µM (inactive)	> 30 µM (inactive)	> 30 µM (inactive)	> 30 µM (inactive)	> 30 µM (inactive)
O=C1NC(=O)[C@@H](c2cn3c4c(cccc24)CCC3)[C@@H]1c1c[nH]c2ccccc12 [TIVANTINIB]	0.232 µM	> 30 µM (inactive)	> 30 µM (inactive)	> 30 µM (inactive)	> 30 µM (inactive)	> 30 µM (inactive)
Cc1cc(Nc2ncnc3ccc(NC4=NC(C)(C)CO4)cc23)ccc1Oc1ccn2ncnc2c1 [TUCATINIB]	> 30 µM (inactive)	> 30 µM (inactive)	> 30 µM (inactive)	> 30 µM (inactive)	> 30 µM (inactive)	> 30 µM (inactive)
C[C@@H](N)c1ccc(C(=O)Nc2ccnc3[nH]ccc23)cc1 [Y-39983]	> 30 µM (inactive)	> 30 µM (inactive)	> 30 µM (inactive)	> 30 µM (inactive)	> 30 µM (inactive)	> 30 µM (inactive)
CN1C/C=C/CCOc2cccc(c2)-c2ccnc(n2)Nc2cccc(c2)C1 [ZOTIRACICLIB]	> 30 µM (inactive)	> 30 µM (inactive)	> 30 µM (inactive)	> 30 µM (inactive)	> 30 µM (inactive)	> 30 µM (inactive)

Now from value to molecule:

Kd [1]	Kd (Pyridoxal kinase)	Kd [2]	Kd [3]	Kd [4]	Kd [5]	Compound
> 30 µM (inactive)	> 30 µM (inactive)	> 30 µM (inactive)	> 30 µM (inactive)	> 30 µM (inactive)	> 30 µM (inactive)	COc1ccc(S(=O)(=O)N(C(C)=O)c2ccccc2/C=C/c2cc[n+]([O-])cc2)cc1 [HMN-214]
> 30 µM (inactive)	> 30 µM (inactive)	> 30 µM (inactive)	> 30 µM (inactive)	> 30 µM (inactive)	> 30 µM (inactive)	Cn1cc(-c2cnc3ccc4ccc(CS(=O)(=O)NCc5ccccn5)cc4c(=O)c3c2)cn1 [MK-8033]
> 30 µM (inactive)	> 30 µM (inactive)	> 30 µM (inactive)	3.41 µM	> 30 µM (inactive)	> 30 µM (inactive)	Cn1cc(-c2cnn3c(N)c(Br)c([C@@H]4CCCNC4)nc23)cn1 [SCH-900776]
> 30 µM (inactive)	> 30 µM (inactive)	> 30 µM (inactive)	3 µM (active)	4.66 µM (active)	2.76 µM (active)	CCS(=O)(=O)c1cccc(-c2cc(C(=O)NC3CCN(C)CC3)c(C)c3[nH]c4ncc(C)cc4c23)c1 [TAK-901]
> 30 µM (inactive)	> 30 µM (inactive)	> 30 µM (inactive)	> 30 µM (inactive)	> 30 µM (inactive)	1.12 µM (active)	CC(C)c1cc(CNc2nc(Nc3cc(C4CC4)[nH]n3)cc(N3CCN(C)CC3)n2)on1 [XL-228]
